# Reference: US9957332B2, “Compositions and methods for treating cocaine-related disorders” (University of Cincinnati, priority 2006, dated 2018)
# pKd, pKi: −log10 of the molar value.
# Columns and labels:
# [1] = Cocaine pharmacokinetics in plasma and brain (GC/MS), absence of mAb; conditions: for mean metabolite concentration in brain / mean metabolite concentration in plasma: 5 min after cocaine injection
# Protocol: Jugular vein catheterized male Swiss-Webster mice (22-28 g at the start of the studies) are purchased. Mice are housed individually with free access to food and water and kept on a 12 h light/dark cycle.
# The antibody (3-5 mg/ml) in phosphate-buffered saline (PBS) or vehicle (PBS) is infused at a rate of approximately 0.35 ml/min for up to two min, depending on the antibody concentration and the body weight of the animal, with the animal held under mild restraint. One hour after completion of the infusion of mAb, cocaine HCl (0.56 mg/kg) plus heparin (400 units/kg) is injected intravenously through the same catheter at a volume of 4.0 ml/kg body weight. At most sampling times, sodium pentobarbital (45 mg/kg, i.p) is administered three minutes prior to sacrificing the animal. For the 0.75 min time point the cocaine is injected into anesthetized mice. At the designated times after the injection of cocaine, anesthetized mice are sacrificed by decapitation and trunk blood (typically 0.8-1.2 ml) is collected in a 1.5 ml polypropylene microcentrifuge tube containing 11.2 μl heparin (1.0 unit/μl) and NaF (16 mg/0.8 ml of blood) to inhibit, respectively, blood coagulation and enzymatic hydrolysis of cocaine. The blood samples are centrifuged at 5,000×g for 3 min, then the plasma (typically 0.4-0.8 ml) is carefully separated from packed red blood cells, placed into sterile 1.5 ml Eppendorf microcentrifuge tubes, rapidly frozen on dry ice and then stored at −80° C. until analysis.
# The whole brain is quickly removed from the decapitated mice, surface blood is blotted away, and the brain is placed in a polypropylene tube, rapidly frozen on dry ice and then stored at −80° C. until analysis. For analysis, brains are weighed and cold deionized, distilled water added to produce a total volume of 1 ml, then homogenized and centrifuged at 13,000 rpm for 45 min at 4° C. The resulting supernatants (0.4-0.6 ml) are collected into sterile polypropylene microcentrifuge tubes and an aliquot (0.05-0.40 ml) is processed for cocaine/metabolite analysis by GC/MS and hemoglobin content. Any remaining sample is stored at −80° C.
# In order to determine in vivo concentrations of cocaine and its metabolites BE and EME, following the i.v. injection of cocaine, 100-400 μl samples of heparinized/NaF treated plasma and 400 μl samples of brain homogenates obtained from cocaine-treated animals are added to 2 ml of 0.1 M Na phosphate buffer, pH 6.0. This is followed by the addition of 5% trichloroacetic acid at a volume equal to that of the experimental sample (100-400 μl). These mixtures are shaken for 20 minutes and then centrifuged for 15 min at 7000 rpm, all at room temperature, in order to precipitate the denatured protein. The supernatants are collected and adjusted to pH 5.4 with 10 M NaOH. Then to serve as internal standards for establishing the identification of cocaine and its metabolites as well as for normalization of the recovery of cocaine/metabolites from the mouse samples, 50 μl of a sample containing deuterated (D3) cocaine-D3, BE-D3 and EME-D3 (each at 1 μg/ml) is added to all of the experimental and the standard control samples before their undergoing solid-phase extraction/column elution. Duplicate, standard control tubes (2 ml) are also prepared containing; 0.1 M Na phosphate buffer, 50 μl of the internal standards D3 cocaine/BE/EME (1 μg/ml, each), 200 μl of normal mouse plasma and varying amounts of cocaine (1-500 ng) and used to generate the standard cocaine concentration curves. Similarly, standard concentration curves are also generated for BE and EME.
# [2] = molecular target: anti-cocaine antibody (present antibodies); test: Competition assays with constant [3H]-cocaine and nonradioactive competitors at the antibody; conditions: competition with [3H]-cocaine at antibody; read-out: binding inhibition constant (Ki)
# Text: (§1) In another embodiment, an antibody binds cocaine or a derivative thereof. […] Other examples of cocaine derivatives include: (−) cocaine; cocaine propyl ester; RTI-128; RTI-66; RTI-160; RTI-192; m-hydroxycocaine; WIN 35,065-2; WIN 35,428; RTI-31; RTI-32; RTI-55; RTI-111; m-hydroxybenzoylecgonine; p-hydroxybenzoylecgonine; RTI-113; tropine; benztropine; 4′,4″-difluoro-3α-diphenylmethoxytropane; hyoscyamine-N-oxide; methylanisotropine; tropisetronmethiodide; anisodine; scopotamine; scopotamine-N-oxide; methylscopolamine; N-butylscopolamine; (−) pseudococaine; (+) cocaine; norcaine; benzoylnorecgonine; (+) pseudococaine; ecgonidine; exo-6-hydroxytropinone; and methylcocaethylene.
# [3] = Radioligand binding assay using antibody and [3H]-cocaine; conditions: [3H]-cocaine radioligand binding; read-out: dissociation constant (Kd) for cocaine
# Text: as §1
# [4] = 2E2 in vivo pharmacokinetics, blood mAb by ELISA; conditions: mice
# Protocol: Then at varying times, to obtain blood samples for mAb quantification, the mice are anesthetized using isoflurane and a sterile 27-gauge hypodermic needle or, alternatively, a sterile scalpel blade is used to puncture or make a small cut in a tail vein and 10 μl of blood is collected using a heparinized capillary pipette tip. The blood is immediately placed in a 1.5 ml polypropylene microcentrifuge tube containing 40 μl of 0.1 M sodium citrate/0.1% sodium azide pH 4.75. These samples are then rapidly placed on ice and then stored at 4° C. until use.
# Briefly, the conjugate benzoylecgonine-ovalbumin (3 μg/ml, 100 μl/well) in 1 mM EGTA pH 7.4 is adsorbed onto PVC 96-well microtiter plates for 1 hr. The plates are then washed 3 times with, and all wells exposed for 10 min to, 0.5% BSA in TBS (10 mM Tris, 140 mM NaCl and 0.02% NaN3, pH 6.9) in order to block non-specific protein binding. The second layer, 100 μl/well of the blood samples diluted (1:500) into BSA-TBS, is added and the sample is incubated for 2 hr. […] The plates are washed with a Solution A, containing 0.5% BSA, 10 mM sodium phosphate, 145 mM NaCl, 1.5 mM MgCl2, 0.05% triton X-100 and 0.02% NaN3, pH 7.2. Then 50 μl/well of affinity-purified biotinylated goat anti-human IgG diluted 1:500 in Solution A is added and incubated for 1 hr. After washing, 50 μl/well of streptavidin-alkaline phosphatase, diluted (1:200) in Solution A, is added, incubated for 1 hr and removed. Then 50 μl/well of the colorimetric reaction mixture, comprised of the substrate para-nitrophenylphosphate (1 mg/ml) in substrate buffer (50 mM Na2CO3, 50 mM NaHCO3 1 mM MgCl2 at pH 9.8), is added. After 6-8 min the reaction is stopped with 1M sodium hydroxide (50 μl/well). […] The reaction endpoint is measured with an ELISA reader at a wavelength of 405 nm. […]
# The program provides Akaike Information Criterion (AIC) and Schwartz Bayesian Criterion (SBC) measures of “goodness of fit” of the data to the one or two compartment pharmacokinetic models that are used. Data are first analyzed according to a single compartment pharmacokinetic model.
# [5] = Effect of infused mAbs on plasma and brain cocaine concentrations and pharmacokinetics; format: in vivo, mice
# [6] = Effect of 2E2 on cocaine metabolite concentrations in plasma and brain; format: in vivo; conditions: mice
# [7] = mice, 5 min after i.v. cocaine, stoichiometric mAb dose
compound,measurement,setting,value
COC(=O)[C@H]1[C@@H](OC(=O)c2ccccc2)C[C@@H]2CC[C@H]1N2C [cocaine],half-life,"[1]; male, Swiss-Webster, mouse, brain, iv, […], t1/2 for entry (input) of cocaine into the brain, mice, absence of 2E2",2 min
same,Vd,"[1]; male, Swiss-Webster, mouse, plasma, iv, […]",6 L/kg
same,half-life,"[1]; male, Swiss-Webster, mouse, plasma, iv, […], plasma distribution half-life (t1/2α) of cocaine, mice, cocaine HCl […] i.v., absence of 2E2, two-compartment model",1.9 min
same,half-life,"[1]; male, Swiss-Webster, mouse, plasma, iv, […], plasma terminal elimination half-life (t1/2β) of cocaine, mice, cocaine HCl […] i.v., absence of 2E2, two-compartment model",26.1 min
same,plasma terminal elimination half-life (t1/2β) of cocaine,"[1]; mice, cocaine HCl […] i.v., absence of 2E2, two-compartment model",26 min
same,brain t1/2α of cocaine,"[1]; mice, i.v., absence of 2E2, two-compartment model",2.0 min
same,highest measured brain cocaine concentration,"[1]; mice, i.v., at 3 min, absence of 2E2","~1,500 ng/g"
same,highest plasma cocaine concentration,"[1]; mice, i.v., earliest sample time (45 sec), absence of 2E2",~110 ng/mL
same,brain t1/2β of cocaine,"[1]; mouse, in vivo, iv",14.5 min
CN1[C@H]2CC[C@@H]1[C@@H](C(=O)O)[C@@H](O)C2 [ecogonine],pKi,[2],4.02
CN1[C@H]2CC[C@@H]1[C@@H](C(=O)O)[C@@H](OC(=O)c1ccccc1)C2 [benzoylecgonine],pKi,[2],7.37
same,mean metabolite concentration in brain,"[1]; mice, absence of 2E2",16 ng/g
same,mean metabolite concentration in plasma,"[1]; mice, absence of 2E2",7 ng/mL
CCOC(=O)[C@@H]1C2CCC(C[C@@H]1OC(=O)c1ccccc1)N2C (stereo partly shown) [cocaethylene],pKi,[2],8.47
COC(=O)[C@@H]1[C@H]2CC[C@@H](C[C@@H]1O)N2C [ecgonine methyl ester],pKi,[2],5.28
same,mean metabolite concentration in brain,"[1]; mice, absence of 2E2",267 ng/g
same,mean metabolite concentration in plasma,"[1]; mice, absence of 2E2",25 ng/mL
2E2: anti-cocaine mAb with human gamma heavy chain (SEQ ID NO: 2) and murine lambda light chain (SEQ ID NO: 1),pKd,[3],8.40
same,elimination t1/2 of 2E2 in blood,"[4]; 120 mg/kg i.v. infusion, single compartment model",8.1 days
same,initial blood concentration of mAb (mean±SEM),"[4]; 120 mg/kg i.v., 3 minutes after infusion, n=8",370 ± 17 µg/mL
same,mean blood concentration of 2E2,"[4]; 120 mg/kg i.v., 24 hours after infusion",422 ± 21 µg/mL
same,brain cocaine concentration at highest mAb dose,"[5]; mice, 360 mg/kg (3:1 mAb:drug), corrected for residual blood",negligible
same,increase in plasma cocaine concentrations,"[5]; mice, 2E2 12 mg/kg (1:10 mAb:cocaine), 5 min",5.1 fold
same,decrease in brain cocaine concentrations,"[5]; mice, 2E2 24 mg/kg, 5 min",35%
same,"peak plasma cocaine concentration, presence vs absence of 2E2","[5]; mice, 2E2 120 mg/kg",11.3 fold
same,t1/2 of cocaine in plasma in the presence of mAb,"[5]; mice, 2E2 120 mg/kg (equimolar), single compartment model",17.1 min
same,peak plasma cocaine concentration in the presence of 2E2,"[5]; mice, 2E2 120 mg/kg, 45 sec after cocaine […] i.v.","~1,100 ng/ml"
same,peak brain cocaine concentration in the presence of 2E2,"[5]; mice, 2E2 120 mg/kg, earliest sample time",~490 ng/g
same,elimination t1/2 of cocaine in brain in the presence of 2E2,"[5]; mice, 2E2 120 mg/kg, single compartment model",3.8 min
same,increase in plasma cocaine concentrations,"[5]; mice, 2E2 360 mg/kg (3:1 ratio), 5 min",46.1 fold
same,decrease in brain cocaine concentration vs vehicle controls,"[5]; mice, 5 min, Table 1",~5 fold
same,increase in plasma cocaine concentration vs vehicle controls,"[5]; mice, 5 min, Table 1",29 fold
same,Change from vehicle (brain cocaine concentration),[5]; [7],−4.8-fold
same,Change from vehicle (plasma cocaine concentration),[5]; [7],+28.7-fold
same,Vdss of cocaine in the presence of mAb,"[5]; mice, equimolar dose of 2E2",0.2 L/kg
same,increase in plasma cocaine AUC,"[5]; mouse, in vivo",26 fold
same,effect of 2E2 dose on brain EME concentrations,[6],no systematic effect
same,effect on brain BE concentrations,[6]; 2E2 doses above 40 mg/kg,concomitant decrease
same,reduction in plasma EME concentrations,[6]; highest dose of 2E2,~2 fold
same,increase in plasma BE concentrations,"[6]; increasing doses of 2E2, plateau above 40 mg/kg",~3 fold
